# Results: US11447533B2, “Antimicrobial and anticancer peptides and conjugates and compositions, methods, articles and kits relating thereto” (George Mason Research Foundation, Inc., priority 2018, dated 2022)
# “Also recorded” adds a separate entry of the source.
# Columns and labels:
# [1] = tested on: E. coli ML35p outer membrane; experiment: NPN assay, outer membrane perturbation; assay type: cell-based, Escherichia coli; conditions: 25 μM peptide, 25 μM PMB = 100%
# Protocol: Interactions with Bacterial Membranes. Interaction of the peptides with bacterial membranes in different phosphate buffers were evaluated using E. coli ML35p, constructed in our laboratory. At first, competent cells of E. coli ML35 were produced by conventional competent cell preparation method, then transformed with pBR322 plasmid. Transformed colonies were selected after growing on Luria-agar containing 50 μg/mL ampicillin. A single transformed colony was grown in presence of ampicillin first in Luria broth and then in MHBII and stored as 20% glycerol stock at −80° C. This frozen stock, on the day of the experiment, was thawed and grown in MHBII containing ampicillin up to OD600 nm=0.8-0.9, washed with PBS and then suspended in the respective buffer up to the required OD600 nm for use.
# NPN Assay. The outer membrane perturbation of bacteria was evaluated by incubating E. coli ML35p with peptides in presence of NPN. 100 mM NPN in acetone was supplemented proportionately to a bacterial suspension of OD600 nm˜0.5 to achieve a final concentration of 20 μM of NPN and the mixture was equilibrated for 30 mins. Then, 90 μL of the bacterial suspension containing 20 μM NPN was added with 10 μL of 250 μM peptide (10×) solution in water and scanned for fluorescence intensity (excitation=350 nm, emission=420 nm). The % Perturbation was calculated by considering PMB to be causing 100% Perturbation and water (without peptide) as 0% Perturbation. Each peptide was tested in triplicate in each of the three phosphate buffers used.
# When peptides partition from the bulk aqueous environment to the cellular membranes, they may cause small defects in the membrane organization, a signature of adsorption of the peptides into the membranes. Such small defects are called membrane perturbations and can be evaluated by utilizing molecular probes. One such molecular probe is NPN, which is a hydrophobic molecule and is usually repelled to enter the hydrophobic interiors of the membrane by the polar headgroups of membrane-lipids. However, when small defects and gaps are caused during the adsorption of the peptides into the membranes, NPN can enter through those defects and in the hydrophobic environment of the membrane interior the molecule fluoresces, which can be measured for quantification of the extent of membrane-perturbation and peptide adsorption in the cellular membrane.
# [2] = tested on: E. coli ATCC 25922; experiment: Antimicrobial efficacy (resazurin virtual colony count); assay type: cell-based, Escherichia coli; conditions: for increase of EC50 in presence of albumin relative to EC50 in DPBS: DPBS + 4% (w/v) bovine serum albumin versus DPBS; for decrease of efficacy in DPBS relative to 10 mM Na-PO4: DPBS versus 10 mM Na-PO4; for decrease of efficacy under physiologically relevant ionic conditions: PBS versus low ionic conditions
# [3] = DPBS (with Ca++ and Mg++), pH 7.4
# [4] = PBS (high / physiologically relevant ionic strength), pH 7.4
Sequence,membrane perturbation with respect to PMB ([1]; DPBS),"antimicrobial efficacy, in words [2, 3]","antimicrobial efficacy, in words [2, 4]",membrane perturbation with respect to PMB ([1]; PBS),increase of EC50 in presence of albumin relative to EC50 in DPBS [2],decrease of efficacy in DPBS relative to 10 mM Na-PO4 [2],membrane perturbation with respect to PMB ([1]; 10 mM phosphate buffer),decrease of efficacy under physiologically relevant ionic conditions [2],"membrane perturbation with respect to PMB ([1]; DPBS, listed as ATRA-R3W2)","antimicrobial efficacy, in words ([2]; serum)"
KRAKKFFKKLK (SEQ ID NO: 4) [ATRA1-A],less effective at perturbing the outer membrane than ATRA-1,lose activity in DPBS,retained some antimicrobial activity,–,–,–,–,–,–,–
KRAKKFFKRLK (SEQ ID NO: 6) [ATRA1-AR],–,–,completely ineffective,decreased slightly,–,–,–,–,–,–
"KRFKKFFKKLK (SEQ ID NO: 2) [ATRA1, first 11 residues of NA-CATH]",less than 50%,lose activity in DPBS; also recorded: lost antimicrobial property,effective in PBS,perturbed comparable to PMB,–,–,–,–,–,–
"KRFKKFFKKLKGGVIGVTFPF (SEQ ID NO: 38) [ATRA1-HYD, ATRA1 with hydrophobic tail of NA-CATH joined at the C-terminus by a short -GG- segment]",~75%,–,–,–,approximately 2 fold,~10 fold,–,–,–,–
"KRFKKFFKKLKNSVKKRAKKFFKKPK (SEQ ID NO: 53) [NA-CATH26, first 26 residues of NA-CATH]",–,–,–,perturbed outer membrane greater than PMB,–,~14 fold,higher degree of membrane perturbations than PMB,approximately 2 fold,–,–
KRWKKWWKKWK (SEQ ID NO: 14) [ATRA1-W4],higher OM perturbation than ATRA1,most effective in DPBS,–,–,–,–,–,–,–,–
RRFKRFFKRLK (SEQ ID NO: 9) [ATRA1-R3],higher OM perturbation than ATRA1,significantly reduced in DPBS relative to its activity in PBS,–,–,–,–,–,–,–,–
RRFRRFFRRLR (SEQ ID NO: 10) [ATRA1-R6],higher OM perturbation than ATRA1,highly effective in DPBS,–,decreased slightly,–,–,–,–,–,–
RRWKRFFKRWK (SEQ ID NO: 15) [ATRA1-R3W2],higher OM perturbation than ATRA1,more effective than either of its parent peptides,–,perturbed comparable to PMB,~5 fold,approximately 3 fold,–,–,~65%,no antimicrobial property
"RRWKRFFKRWKGGVIGVTFPF (SEQ ID NO: 50) [ATRA1-R3W2-HYD, ATRA1-R3W2 with hydrophobic tail of NA-CATH joined by -GG-]",~100%,–,–,comparable to PMB,did not demonstrate significant changes in EC50 values,–,75%,~5 fold,–,–
